Reference: ChEMBL document CHEMBL1201862, “PubChem BioAssay data set” (2004)
Calls of active or inactive are those of the source.

What was measured:
Paired box protein Pax-8 = Paired box protein Pax-8 (Homo sapiens, UniProt Q06710); assay: PAX8 transcriptional activity inhibition in RMG-I – RMG-I cells, luciferase, cherry-pick, dose response (AID 687027); format: functional, cell-based;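 note: luciferase reporter driven by Pax8 target thyroperoxidase promoter measured by SteadyGlo luminescence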
[1] = OVCAR-3 cell viability loss – plate reader, dry powder samples, PAX8 inhibitor project, dose response (AID 743044); format: functional, cell-based
[2] = intracellular Trypanosoma cruzi inhibitors in host cells – cell-based, plate reader, cherry-pick samples, set 3, dose response (AID 651818); format: functional;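 note: compounds incubated with infected cells for about four days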
[3] = general cell-killing toxicity readout – plate reader, dry powder samples, cytotoxicity control for PAX8 inhibitor project, dose response (AID 743021); format: functional, cell-based
[4] = OVCAR8 cell viability loss – plate reader, dry powder samples, PAX8 project, dose response (AID 743197); format: functional, cell-based; conditions: OVCAR-8
[5] = viability of PTEN-deleted HCT116 cells – cell-based, HCT116 PTEN knockout, dose response (AID 1047); format: functional;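 note: HCT116 colon tumor cells with PTEN knocked out; cells exposed to compound for 60 hours before readout; potency for loss of cell viability measured by luminescence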
[6] = NIH3T3 cell viability loss – ATP luminescence, mouse fibroblasts, counter-screen, dose response (AID 2010); format: functional, cell-based;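 note: cells exposed to compound for about 90 hours before reading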
[7] = viability of HCT116 lacking mutant beta-catenin – cell-based, human colon tumor, dose response (AID 1045); format: functional;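 note: HCT116 colon tumor cells with beta catenin knocked out; cells exposed to compound for 60 hours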
[8] = biological target: T1, DNA repair protein RAD52 homolog (Homo sapiens, UniProt P43351); format: functional, biochemical
T1 sequence (P43351 whole entry): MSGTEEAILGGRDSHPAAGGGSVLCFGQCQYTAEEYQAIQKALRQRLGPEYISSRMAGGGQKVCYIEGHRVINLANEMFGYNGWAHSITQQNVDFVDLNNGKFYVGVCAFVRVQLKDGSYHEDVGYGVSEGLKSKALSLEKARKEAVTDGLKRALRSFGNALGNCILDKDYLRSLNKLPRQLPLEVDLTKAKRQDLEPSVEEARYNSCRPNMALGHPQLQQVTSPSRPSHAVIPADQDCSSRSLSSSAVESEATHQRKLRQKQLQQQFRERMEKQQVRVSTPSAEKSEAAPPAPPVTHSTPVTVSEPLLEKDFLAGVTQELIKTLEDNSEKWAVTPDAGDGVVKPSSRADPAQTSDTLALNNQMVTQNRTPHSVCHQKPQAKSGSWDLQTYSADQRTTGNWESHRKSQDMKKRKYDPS

[9] = Trypanosoma cruzi growth suppression in host cells – NIH3T3 host cells, beta-gal luminescence, confirmation (AID 2044); format: functional, cell-based;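 note: intracellular parasites grown in NIH/3T3 mouse fibroblasts as host cells; luminescent beta-galactosidase reporter signal from transgenic T. cruzi replicating inside host cells; inhibitors lower the luminescence signal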
[10] = Dd2 parasite growth inhibition in erythrocytes – SYBR Green, dry powder samples, set 9, dose response (AID 1159568); format: functional, cell-based
[11] = blockade of melanocortin 4 receptor signaling – cell-based, plate reader, cherry pick, counter-screen for LGR2 antagonist project, dose response (AID 743444); format: functional;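 note: transfected HEK 293 cells stimulated with alpha-MSH peptide; potency of inhibitors of the alpha-MSH evoked signal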
[12] = blockers of bursicon-stimulated LGR2 cAMP reporter – cell-based, HEK293, CRE-luciferase reporter, cherry pick, set 2, dose response (AID 743343); format: functional;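 note: transfected cells were stimulated with diluted bursicon conditioned medium after compound addition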
[13] = biological target: T2, Sentrin-specific protease 7 (Homo sapiens, UniProt Q9BQF6); format: functional;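 note: Luminescence-based dose-response confirmation of ultra-high-throughput screening hits, measuring inhibition of SENP7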
T2 sequence (Q9BQF6 whole entry): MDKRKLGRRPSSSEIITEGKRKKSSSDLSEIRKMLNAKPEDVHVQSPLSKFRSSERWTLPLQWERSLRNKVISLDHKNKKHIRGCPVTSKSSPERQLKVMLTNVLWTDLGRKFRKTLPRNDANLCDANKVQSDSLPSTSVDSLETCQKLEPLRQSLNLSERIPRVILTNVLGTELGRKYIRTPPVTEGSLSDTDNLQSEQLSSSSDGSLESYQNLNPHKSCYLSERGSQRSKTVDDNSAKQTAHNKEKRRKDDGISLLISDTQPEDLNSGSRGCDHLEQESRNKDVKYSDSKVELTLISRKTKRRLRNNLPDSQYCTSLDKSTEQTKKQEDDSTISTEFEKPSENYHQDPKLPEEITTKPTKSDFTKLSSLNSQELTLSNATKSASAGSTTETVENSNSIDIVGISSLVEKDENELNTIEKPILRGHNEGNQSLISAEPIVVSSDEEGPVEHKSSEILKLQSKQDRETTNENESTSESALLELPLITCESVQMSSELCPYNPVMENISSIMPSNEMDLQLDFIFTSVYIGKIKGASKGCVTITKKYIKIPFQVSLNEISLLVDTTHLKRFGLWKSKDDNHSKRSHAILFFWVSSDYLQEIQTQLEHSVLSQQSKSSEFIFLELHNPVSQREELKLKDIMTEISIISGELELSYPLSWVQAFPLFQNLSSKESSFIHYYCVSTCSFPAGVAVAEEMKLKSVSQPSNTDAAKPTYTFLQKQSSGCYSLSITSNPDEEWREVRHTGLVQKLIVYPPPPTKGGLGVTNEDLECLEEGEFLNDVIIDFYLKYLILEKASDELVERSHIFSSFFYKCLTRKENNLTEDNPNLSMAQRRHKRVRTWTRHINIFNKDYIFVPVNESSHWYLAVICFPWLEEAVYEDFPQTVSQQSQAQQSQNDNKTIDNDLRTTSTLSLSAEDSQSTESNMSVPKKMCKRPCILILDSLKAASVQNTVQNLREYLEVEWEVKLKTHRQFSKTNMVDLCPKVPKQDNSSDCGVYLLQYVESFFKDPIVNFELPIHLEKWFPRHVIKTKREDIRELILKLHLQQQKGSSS

[14] = A549 cell cytotoxicity, dose response, cytotoxicity control, plate reader, cherry-pick, antagonist series (AID 743412); format: functional, cell-based
[15] = biological target: T3, Sentrin-specific protease 6 (Homo sapiens, UniProt Q9GZR1); format: functional;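 note: Luminescence-based dose-response confirmatory assay of SENP6 inhibition, following up an ultra-high-throughput screen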
T3 sequence (Q9GZR1 whole entry): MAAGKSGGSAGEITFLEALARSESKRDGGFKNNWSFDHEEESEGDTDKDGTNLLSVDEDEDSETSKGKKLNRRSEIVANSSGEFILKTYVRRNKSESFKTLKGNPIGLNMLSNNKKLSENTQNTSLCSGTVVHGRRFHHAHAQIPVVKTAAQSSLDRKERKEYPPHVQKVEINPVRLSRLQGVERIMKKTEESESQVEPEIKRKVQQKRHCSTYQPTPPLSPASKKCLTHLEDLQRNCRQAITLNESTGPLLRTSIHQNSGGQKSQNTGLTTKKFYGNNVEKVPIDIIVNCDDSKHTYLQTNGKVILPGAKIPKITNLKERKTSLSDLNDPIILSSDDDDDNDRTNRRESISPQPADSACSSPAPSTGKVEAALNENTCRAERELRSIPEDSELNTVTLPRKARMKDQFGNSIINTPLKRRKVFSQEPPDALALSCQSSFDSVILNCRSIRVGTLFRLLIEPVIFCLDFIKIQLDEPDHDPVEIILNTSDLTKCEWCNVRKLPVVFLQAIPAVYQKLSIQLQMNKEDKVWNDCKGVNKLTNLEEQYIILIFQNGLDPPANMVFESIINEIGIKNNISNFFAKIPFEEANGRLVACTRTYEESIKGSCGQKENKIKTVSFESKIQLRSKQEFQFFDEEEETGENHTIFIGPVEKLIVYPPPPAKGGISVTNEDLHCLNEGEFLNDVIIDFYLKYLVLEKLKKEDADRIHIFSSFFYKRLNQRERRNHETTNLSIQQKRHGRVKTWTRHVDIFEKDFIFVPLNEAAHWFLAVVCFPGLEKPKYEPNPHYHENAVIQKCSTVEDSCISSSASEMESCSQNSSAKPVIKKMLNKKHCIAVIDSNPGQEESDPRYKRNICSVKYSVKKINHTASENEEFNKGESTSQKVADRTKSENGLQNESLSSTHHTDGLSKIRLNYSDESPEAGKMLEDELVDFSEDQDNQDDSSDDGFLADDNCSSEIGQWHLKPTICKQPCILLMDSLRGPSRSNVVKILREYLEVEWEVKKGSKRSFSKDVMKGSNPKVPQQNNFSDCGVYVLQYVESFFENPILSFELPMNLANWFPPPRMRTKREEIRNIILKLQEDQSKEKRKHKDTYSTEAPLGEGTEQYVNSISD

[16] = toxicity toward HepG2 liver cells – cell-based, plate reader, cherry-pick, antagonist series, cytotoxicity control, dose response (AID 743416); format: functional
Caspase-3 = biological target: T4, Caspase-3 (Homo sapiens, UniProt P42574); format: functional;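 note: Dose-response selectivity test against caspase-3 for candidate inhibitors of sentrin-specific proteases (SENPs)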
T4 sequence (P42574 whole entry): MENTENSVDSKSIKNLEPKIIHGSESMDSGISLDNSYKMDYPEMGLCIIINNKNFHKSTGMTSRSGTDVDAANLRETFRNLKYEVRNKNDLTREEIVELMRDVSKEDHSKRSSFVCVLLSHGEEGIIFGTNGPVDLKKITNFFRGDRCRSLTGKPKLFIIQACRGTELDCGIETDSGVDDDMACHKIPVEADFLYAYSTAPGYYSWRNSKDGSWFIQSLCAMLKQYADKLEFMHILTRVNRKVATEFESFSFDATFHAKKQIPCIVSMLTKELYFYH

[17] = biological target: T5, Sentrin-specific protease 8 (Homo sapiens, UniProt Q96LD8); format: functional;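 note: luminescence read-out of SENP8 inhibition, dose-response confirmation following an ultra-high-throughput screen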
T5 sequence (Q96LD8 whole entry): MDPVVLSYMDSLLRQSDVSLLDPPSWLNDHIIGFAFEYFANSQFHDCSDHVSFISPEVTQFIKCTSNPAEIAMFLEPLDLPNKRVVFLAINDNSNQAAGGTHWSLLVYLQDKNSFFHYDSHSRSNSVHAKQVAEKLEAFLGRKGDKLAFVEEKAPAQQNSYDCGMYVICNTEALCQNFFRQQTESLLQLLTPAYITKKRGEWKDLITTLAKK

[18] = alpha-synuclein stem-loop luciferase translation blockers – H4 neuroglioma cells, luminescence, confirmation (AID 1988); format: functional, cell-based
[19] = Luminescence Cell-Based Dose Response HTS to Identify Inhibitors of 5'UTR Stem-Loop Driven Prion Protein mRNA Translation in H4 Neuroglioblastoma Cells. [Related pubchem assays: 1827 (Project Summary), 1813 (Primary HTS)]; format: functional
[20] = rise of 4N DNA cells, HeLa – IC50, dose response (AID 1117351); format: functional, cell-based
[21] = rise of 2N DNA cells, HeLa – IC50, dose response (AID 1117349); format: functional, cell-based
Estrogen receptor beta [22] = biological target: T6, Estrogen receptor beta (Homo sapiens, UniProt Q92731);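 note: recombinant ER-beta bound to coactivator SRC1 peptide in presence of estradiol agonist; inhibitors block coactivator peptide binding and lower the FRET signal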
Estrogen receptor beta [23] = biological target: T6, Estrogen receptor beta; assay: blockers of SRC-3 recruitment to ERβ – biochemical, ELISA, streptavidin-HRP readout, orthogonal assay, confirmation (AID 1060)
[24] = IGROV1 cell killing – plate reader, dry powder samples, PAX8 inhibitor project, dose response (AID 743043); format: functional, cell-based; conditions: IGROV-1
[25] = toxicity toward immortalized ovarian surface epithelium – cell-based, plate reader, dry powder samples, cytotoxicity control for PAX8 inhibitor project, dose response (AID 743045); format: functional

Paired box protein Pax-8, sequence (Q06710 whole entry): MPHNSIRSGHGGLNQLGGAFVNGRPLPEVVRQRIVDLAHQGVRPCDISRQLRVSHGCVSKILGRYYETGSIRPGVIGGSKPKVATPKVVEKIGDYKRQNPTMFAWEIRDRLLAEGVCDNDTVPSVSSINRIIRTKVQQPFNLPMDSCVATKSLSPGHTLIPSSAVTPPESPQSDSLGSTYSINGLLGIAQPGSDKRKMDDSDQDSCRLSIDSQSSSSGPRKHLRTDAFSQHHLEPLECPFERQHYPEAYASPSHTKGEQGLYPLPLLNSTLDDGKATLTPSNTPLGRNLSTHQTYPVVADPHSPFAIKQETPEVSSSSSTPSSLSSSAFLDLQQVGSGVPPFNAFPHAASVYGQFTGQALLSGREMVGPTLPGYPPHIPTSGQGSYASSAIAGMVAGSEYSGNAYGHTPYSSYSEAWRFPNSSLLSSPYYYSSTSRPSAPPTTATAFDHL
T6 sequence (Q92731 whole entry): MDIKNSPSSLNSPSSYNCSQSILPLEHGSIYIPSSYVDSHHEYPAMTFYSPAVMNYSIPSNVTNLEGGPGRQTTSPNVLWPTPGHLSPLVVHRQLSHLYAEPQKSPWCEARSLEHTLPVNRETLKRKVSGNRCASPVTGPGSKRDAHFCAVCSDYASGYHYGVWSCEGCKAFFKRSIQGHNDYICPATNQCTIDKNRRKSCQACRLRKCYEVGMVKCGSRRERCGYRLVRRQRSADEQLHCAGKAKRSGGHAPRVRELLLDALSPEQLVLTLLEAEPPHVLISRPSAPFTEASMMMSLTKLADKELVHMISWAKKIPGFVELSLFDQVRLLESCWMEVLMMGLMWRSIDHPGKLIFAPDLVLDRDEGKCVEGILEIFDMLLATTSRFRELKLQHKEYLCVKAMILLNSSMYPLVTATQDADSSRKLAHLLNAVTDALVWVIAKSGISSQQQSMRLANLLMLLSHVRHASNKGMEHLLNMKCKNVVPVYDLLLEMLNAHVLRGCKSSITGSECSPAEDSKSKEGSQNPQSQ

COc1ccc(S(=O)(=O)N(C)C[C@H]2Oc3c(NC(=O)Nc4ccc(C(F)(F)F)cc4)cccc3C(=O)N([C@@H](C)CO)C[C@H]2C)cc1
AC50 (Paired box protein Pax-8): 7.04 µM (active) | AC50 [1]: 66.2 µM (active) | AC50 [2]: 7.67 µM (active) | AC50 [3]: 51 µM (active)

O=C(Nc1ccc(F)cc1)N1C[C@@H]2N[C@H](C1)[C@@H]2c1ccc(/C=C/c2ccccc2)cc1
AC50 (Paired box protein Pax-8): 10.7 µM (active) | AC50 [4]: 26 µM (active) | AC50 [3]: 23.6 µM (active)

CN(C)CCCn1c(SCC(=O)N2c3ccccc3Sc3ccccc32)nc2ccccc2c1=O
EC50 [5]: 5.64 µM (active) | EC50 [6]: > 60 µM (not active) | EC50 [7]: 4.73 µM (active) | AC50 [8]: 17.1 µM (active) | EC50 [9]: 0.268 µM (active)

O=S(=O)(c1cccs1)N1CCCCN2[C@H](CO)[C@H](c3ccc(/C=C/c4ccccc4)cc3)[C@H]2C1
AC50 [10]: 3.42 µM (active)

C[C@@H]1CN([C@H](C)CO)C(=O)c2cccc(NC(=O)c3ccc(-c4nccs4)cc3)c2O[C@H]1CN(C)C(=O)Nc1ccc(C(F)(F)F)cc1
AC50 [10]: 7.49 µM (active)

COc1ccc(-c2ccccc2[C@@H]2[C@@H](C#N)N(C(=O)NC3CCCCC3)[C@H]2CO)cc1
AC50 [10]: 7.06 µM (active)

COc1ccc(C(=O)Nc2ccc3ccccc3n2)c(OC)c1OC
AC50 [11]: 6.75 µM (active) | AC50 [12]: 7.06 µM (active) | IC50 [13]: 2.37 µM (active) | AC50 [14]: > 52 µM (inactive) | IC50 [15]: 2.95 µM (active) | AC50 [16]: > 52 µM (inactive) | IC50 (Caspase-3): 6.1 µM (active) | IC50 [17]: > 100 µM (inactive)

Cc1cnc(NC(=O)COc2ccccc2Cl)s1
AC50 [11]: 2.3 µM (active) | AC50 [12]: 2.33 µM (active) | AC50 [14]: > 52 µM (inactive) | EC50 [18]: 1.25 µM (active) | EC50 [19]: 0.491 µM (active)

CO[C@@H]1[C@@H](OC)[C@H](C)[C@@](O)(CC(=O)O)O[C@H]1[C@H](C)[C@H]1O[C@@]2(CC[C@@](C)([C@H]3CC[C@@](C)([C@@H]4O[C@@H]([C@H]5O[C@](C)(O)[C@H](C)C[C@@H]5C)C[C@@H]4OC4C[C@H](OC)[C@@H](OC)[C@H](C)O4)O3)O2)C[C@H](O)[C@H]1C (stereo not given in full)
IC50 [20]: > 10 µM (inactive) | IC50 [21]: > 10 µM (inactive)

CC(=O)Nc1ccn(C2COC(COC(=O)c3ccccc3)O2)c(=O)n1 (stereo not given)
IC50 [20]: > 10 µM (inactive) | IC50 [21]: > 10 µM (inactive)

O=S(=O)(NCC(O)COCc1ccco1)c1cccs1 (stereo not given)
IC50 (Estrogen receptor beta [22]): 20.6 µM (active) | IC50 (Estrogen receptor beta [23]): 14 µM (not active)

Cc1ccc(S(=O)(=O)N(C)C[C@H]2Oc3cc(C#Cc4ccncc4)ccc3S(=O)(=O)N([C@@H](C)CO)C[C@H]2C)cc1
AC50 (Paired box protein Pax-8): 3.15 µM (active) | AC50 [24]: 45.3 µM (active) | AC50 [25]: 51.6 µM (active) | AC50 [1]: 4.57 µM (active) | AC50 [4]: 30.8 µM (active)

C[C@@H]1CCCCO[C@@H](CN(C)S(=O)(=O)c2ccc(F)cc2)[C@@H](C)CN([C@@H](C)CO)C(=O)c2cc(N(C)C)ccc2O1
AC50 [10]: 2.56 µM (active)
